Assay results as given in paper PMC10759735, “The diverse functions of Mu-class Glutathione S-transferase HrGSTm1 during the development of Hyalomma rufipes with a focus on the detoxification metabolism of cyhalothrin” (Parasites & Vectors, 2024).

Test system: T1, rHrGSTm1
T1 construct: gene HrGSTm1; full-length CDS (672-bp ORF); 223 aa in abstract, 233; recombinant 44 kDa, no tag removal described
Assay: GSH conjugation, absorbance at […] nm, Michaelis-Menten fit
Format: biochemical, Hyalomma rufipes
Conditions: 5 mM GSH; CDNB varied 0.125-2 mM (printed unit μM lies far below this range, possibly meant mM); abstract calls glutathione the substrate

SMILES: O=[N+]([O-])c1ccc(Cl)c([N+](=O)[O-])c1 [CDNB, 1-Chlom-2,4-Dinitrobenzene]
- Km: 2.21 ± 0.76 µM
